Measured values reported in patent US11464854B2, “Methods and compositions relating to adjuvants” (Children's Medical Center Corporation, priority 2017, dated 2022).

Assays:
[1] = Safety and reactogenicity monitoring in neonatal/infant rhesus macaques; format: in vivo, rhesus macaques (Macaca mulatta)
Method: In vivo neonatal and infant rhesus macaque vaccination studies. Rhesus macaques (Indian origin Macaca mulatta) were obtained from the TNPRC specific pathogen-free breeding colony. Upon identification, pregnant dams were transferred to an indoor social group to allow for monitoring and delivery of infants. At birth, neonatal rhesus macaques (<24 hours of age) were enrolled into the longitudinal immunization study. Exclusion criteria were, a) maternal fever (≥40° C.) during infant exam on DOL0, b) birth weight<400 g, c) clinical signs of neonatal infection (e.g. infant temperature […]; nasal, ocular discharge; respiratory distress, cardiovascular instability), d) congenital defects (e.g. abnormal digits, omphalocele) and/or e) abnormal cling. Animals were group-housed in dam/infant pairs with a maximum of 4 pairs (8 animals) together. […] Standard physiological safety parameters, extrapolated from human infant clinical trials of PCV (28), included temperature and weight (normalized to Tulane National Primate Research Center reference standard for rhesus macaques), which were recorded at multiple time-points at observation/sample-acquisition, as well as local signs of reactogenicity such as leg circumference pre/post-immunization and photographic documentation of erythema (Table 4). […]

[2] = rats
[3] = tested on: human neonatal and adult blood; assay: Human whole blood assay, cytokine induction (CRX adjuvants); format: cell-based
Method: Human blood was anti-coagulated with 20 units/ml pyrogen-free sodium heparin (American Pharmaceutical Partners, Inc.; Schaumberg, Ill.). All blood products were kept at room temperature and processed within 4 hours from collection. Human whole blood assays were completed as previously described. Briefly, neonatal cord blood or adult whole blood (WB) was mixed 1:1 with sterile pre-warmed (37° C.) RPMI 1640 medium (Invitrogen; Carlsbad, Calif.) and 180-225 μl of the 1:1 suspension was added to each well of a 96 well U-bottom plate (Becton Dickinson; Franklin Lakes, N.J., USA) containing 20-25 μl freshly prepared specific TLRAs at 10× the final concentration. Suspensions containing 200-250 μl/well were gently mixed by pipetting and incubated for 6 hours at 37° C. in a humidified incubator at 5%, CO2. After culture, plates were centrifuged at 500×g and ˜100-150 μl of supernatant was carefully removed by pipetting without disturbing the cell pellet. Supernatants derived from human leukocyte stimulations were assayed by ELISA for TNF and IFNγ (BD Biosciences; San Jose, Calif., USA).
Additionally, for both newborn and adult readouts, cytokine and chemokine expression profiles in cell culture supernatants and peripheral blood plasma were measured using customized Milliplex™ human cytokine/chemokine magnetic bead panels (Millipore; Billerica, Mass., USA). Assays were analyzed on the Luminex® 100/200™ System employing xPOTENT® software (Luminex; Austin, Tex.) and Millipore Milliplex Analyst™ (version 3.5.5.0). The minimum threshold for each analyte was set at the minimum detectable concentration for a given assay, defined as three standard deviations above the mean background. CL075 (TLR8/7) was purchased from InvivoGen (San Diego, Calif.) and used at the concentrations noted in the figure legends.

[4] = 1 μM and 10 μM, newborn over adult whole blood

| Structure (SMILES) | animals with transient and mild maculopapular rash ([1]; 3M-052- or (PCV13+3M-052)-treated infant animals, co-housed, second enrollment season) | systemic cytokine induction (plasma) ([1]; with or without PCV13, first 63 days of life or 48 hours post (DOL30) a single dose) | 3M-052 in serum ([2]; 0.1 mg/kg, up to 24 hours post-dose) | serum 3M-052 peak ([2]; 1 mg/kg, 4 hour peak) | CXCL8, CXCL10, CCL2 and GM-CSF production (multiplex) [3, 4] | production of IL-1β, L-6, IL-10, and IL-12p40 (multiplex) [3, 4] | IFNγ production in newborn blood relative to similarly treated adult blood ([3]; 10 μM) | TNF production in newborn cord blood versus adult ([3]; 6 hours) | IFNγ production ([3]; newborn blood, 10 μM, 6 hours) | induction of IFNγ ([3]; newborn cord blood, 6 hours) |
| --- | --- | --- | --- | --- | --- | --- | --- | --- | --- | --- |
| CCCCCCCCCCCCCCCCCC(=O)NCCCCOn1c(CCCC)nc2c(N)nc3ccccc3c21 [3M-052, N-[4-[(4-amino-2-butyl-1H-imidazo[4,5-c]quinolin-1-yl)oxy]butyl]octadecanamide] | 3 of the total of 16 | did not induce systemic cytokine induction | not detectable | ~50 pmol/mL | – | – | – | – | – | – |
| CCCCc1nc2c(N)nc3ccccc3c2n1CCO [CRX-649] | – | – | – | – | greater CRX-649 induced production in newborn blood | concentration-dependent production | twice | more than adult-like age-specific potency and effectiveness | ~1200 pg/mL | greatest potency, effectiveness and IFNγ polarization |
